How the values were obtained:
[1] = system: melanoma cell line LOX; assay: Cell survival assay (crystal violet); format: cell-based, human; conditions: 100 μM, 3 days
Protocol: (§1) Typically, the small molecule compounds of the present invention were dissolved in DMSO at a concentration of 30 mM. The small molecule compounds were then tested under cell culture conditions at different concentrations ranging from 0, 10, 30, 50, to 100 uM. To determine cell survival after treatment, the cells were incubated with the small molecule compounds in 6-well plates for about 3 days. After removal of the cell culture medium, 1-ml of 0.5% crystal violet solution (prepared in 20% ethanol and 20% methanol) was added to stain the cells for 5 min. Then the crystal violet solution was rinsed clean with tap water. Cell survival was estimated based on the density of crystal stained plates.
The effect of small molecule compounds FN1-5, FN1-8, FN1-7, FN1-9U, and FN1-9S was tested using a cytotoxicity assay and the melanoma cell line LOX. LOX cells were plated in 6-well plates and incubated with 100 μM of each compound (stocks were dissolved in DMSO at 30 mM) for 3 days, as described herein. […] Live cells were stained by 0.5% crystal violet.
Cell killing was also tested using human melanoma cell line LOX and different doses of the small molecule compounds FN1-5 and FN1-8. LOX cells were plated in 6-well plates and incubated with 10, 30, and 50 μM of each compound for 3 days, as described herein.

[2] = system: primary cultured human mesothelioma cells; assay: Cell survival assay (crystal violet); format: cell-based; conditions: 50 and 100 μM, 3 days
Protocol: Fresh cancer tissue and adjacent normal tissue from patients undergoing curative primary resection of their tumors were collected at the time of surgery (IRB approval H8714-15319-040), and immediately snap-frozen in liquid nitrogen. These tissue samples were kept at −170° C. in a liquid nitrogen freezer until further use. Primary tissue cultures were prepared as follows: Fresh cancer tissue was obtained with consent from patients undergoing resection, cut into small pieces (1-2 mm in diameter), and then digested with Collagenase A (Roche Applied Science, Indianapolis, Ind.) at room temperature for 2 hours according to manufacture's protocol. Single cells from the digestion were spun down and the cell pellets were washed twice using RPMI 1640 supplemented with 10% fetal bovine serum, penicillin (100 IU/ml) and streptomycin (100 μg/ml). Then, the cells were resuspended in the same medium and cultured in 6-well plates at 37° C. in a humid incubator with 5% CO2 until they were ready for further treatments.
as §1
Next, the effect of different small molecule compounds on primary cultured human mesothelioma cells freshly made from tissue samples was examined. The primary cultures were plated in 6-well plates as described herein and incubated with 50 and 100 μM of each compound (FN1-5, FN1-7, FN1-8, and FN3-5; stocks were dissolved in DMSO at 30 mM) for 3 days. […] (FIG. 8).

[3] = system: normal human muscle cells; assay: Cell survival assay (crystal violet); format: cell-based; conditions: 1, 10, 30, and 50 μM, 3 days
Protocol: as §1
The cell killing effect of small molecule compounds FN1-8, FN1-7, and FN1-5 at different doses was examined in normal human muscle cells. […] Normal muscle cells were plated in 6-well plates and incubated with 1, 10, 30, and 50 μM of each compound for 3 days, in the same manner as described herein for similar other experiments. […] Both FN1-5 and FN1-8 seem to be specific in killing cancer cells.

[4] = system: human SOCS3 promoter in NSCLC cell line A549; assay: SOCS3 promoter-luciferase reporter assay; format: cell-based; conditions: A549, 30 μM, 18-24 hours
Protocol: One day before transfection, cells (1×10^5) were plated in 12-well plates with growth medium without antibiotics. When cells reached 80-90% of confluence they were co-transfected using 0.5 μg of each promoter construct in pGL3Basic vector and 0.025 μg pRL-TK Vector (Promega; Madison, Wis.) containing Renilla Luciferase as an internal control for the transformation efficiency. Lipofectamine 2000™ (Invitrogen Life Technologies) was used to mediate transfection for about 6 hours. Then the medium was replaced with fresh medium containing various small molecule compounds at a concentration of 30 μM, and the resulting cells were cultured for an additional 18-24 hours and subjected to luciferase assay. Briefly, cells were lysed in a lysis buffer and Firefly and Renilla Luciferase activities in cells of each well, were measured using Dual-Luciferase Assay System (Promega) and an illuminometer. The measured luciferase activities were normalized to pRL-TK Vector activity and were given relative to the basal activity of empty pGL3-Basic Vector, which was set to unity. The data shown represent mean values (±S.D.). All measurements were performed in triplicate and repeated in at least three independent experiments. The human Wnt-2 promoter-luciferase construct, the human SOCS3 promoter-Luciferase construct and the human Gremlin promoter-luciferase construct were cloned and characterized in the laboratory of Dr. Jablons at the University of California, San Francisco (San Francisco, Calif.; He et al., Biochem Biophy Res Comm, 2003; and unpublished data). The 6GLI-TKO-luciferase construct (containing 6 repeats of consensus GLI DNA binding sequence) was kindly provided by Dr. Matthias Hebrok's laboratory at the University of California, San Francisco (San Francisco, Calif.).
As a third specificity test for the small molecule compounds of the present invention, the ability of these compounds to regulate the expression of genes that are not down-stream targets of the Gli activation was analyzed. SOCS3, an inhibitor and down-stream target gene of JAK/STAT pathway was chosen for this experiment. Expression of SOCS3 is not under control of Gli and/or Wnt activation. Furthermore, no GLI and TCF binding sites were found in the human SOCS3 promoter cloned in the laboratory of Dr. Jablons (University of California, San Francisco; data not shown). Thus, SOCS3 promoter-luciferase reporter activity was measured after the treatment of the NSCLC cell line A549 with small molecule compounds FN1-5, FN1-7, FN1-8, and FN1-9U.

[5] = system: colon cancer cell lines SW480 and HCT116; assay: Cytotoxicity and apoptosis assays; format: cell-based, human; conditions: 10, 30, 50, and 100 μM; data not shown
Protocol: as §1
(§2) Apoptosis was analyzed by using an Annexin V FITC Apoptosis Detection Kit (Biosource, Camarillo, Calif.), according to the manufacturer's protocol. After treatment with different small molecule compounds at various concentrations for about 3 days, cells were harvested by trypsinization, stained and immediately analyzed by flow cytometry (FACScan; Decton Dickinson, Franklin Lake, N.J.). Early apoptotic cells with exposed phosphatidylserine but intact cell membranes will bind to Annexin V-FITC, but not propidium iodide (PI). Cells in necrotic or late apoptotic stages will be labeled with both Annexin V-FITC and PI. […]

[6] = system: H1299 and A549 cells; assay: Cytotoxicity and apoptosis assays; format: cell-based, human; conditions: 10, 30, 50, and 100 μM; data not shown
Protocol: as §1, §2

[7] = system: mesothelioma cell line MS-1; assay: Cytotoxicity and apoptosis assays; format: cell-based, human; conditions: 10, 30, 50, and 100 μM (FN1-9U effect at 100 μM)
Protocol: as §1, §2

| Structure (SMILES) | cell killing effect [1] | cell killing effect [2] | cell killing effect in normal cells [3] | SOCS3 promoter activity [4] | cell killing effect or apoptosis [5] | cell killing effect or apoptosis [6] | cell killing effect or apoptosis [7] |
| --- | --- | --- | --- | --- | --- | --- | --- |
| O=C(NCCCO)C1C(c2ccccc2)=NN(c2ccccc2)C1c1ccccc1 (stereo not shown) [FN1-7, N-(3-Hydroxypropyl)-1,3,5-triphenyl-4,5-dihydro-pyrazole-4-carboxyanide] | Some killing | No significant cell killing | No noticeable cell killing effect | inactive | – | – | – |
| O=C(O)CCCCNC(=O)C1C(c2ccccc2)C(c2ccccc2)=NN1c1ccccc1 (stereo not shown) [FN1-9S, 5-(1,3,4-triphenyl-4,5-dihydro-pyrazole-5-carbonyl)aminopentanoic acid] | – | – | – | – | No dramatic cell killing effect or apoptosis | no noticeable cell killing effect or apoptosis | no cell killing effect or apoptosis |
| O=C(O)CCCCNC(=O)C1C(c2ccccc2)=NN(c2ccccc2)C1c1ccccc1 (stereo not shown) [FN1-9U, 5-(1,3,5-Triphenyl-4,5-dihydro-pyrazole-4-carbonyl)aminopentanoic acid] | Some killing | – | – | inactive | No dramatic cell killing effect or apoptosis | no noticeable cell killing effect or apoptosis | some cell killing |
| CC(C)CC1=NN(c2ccccc2)C(CC(C)C)C1C(=O)NCCCCCO (stereo not shown) [FN3-5, N-(5-Hydroxypentyl)-1-phenyl-3,5-bis(isobutyl)-4,5-dihydro-pyrazole-4-carboxyamide] | – | No significant cell killing | – | – | – | – | – |
